In data set [1] the test system is NER activity in XP-A (XP2OS) cell extracts. In words: In vitro NER assay in XP-A (XP2OS) cell extract supplemented with wild-type or mutant XPA protein. Type of data set: biochemical. The note with it: XPA-deficient cell extract, 200 and 800 nM XPA, cisplatin crosslink plasmid. From the text: In Vitro NER assay. […] The wild-type, […], […] and […]/[…]
Another data set has as its system DNA three-way junction. In words: DNA binding assay (band shift) with 5'-labeled DNA three-way junction. The note with it: 1 nM DNA, 4-150 nM XPA. Here is the method:
DNA binding assays. The three-way junction DNA substrate described previously (substrate 7 in Table 1 of Hohl et al., 2003, J. Biol. Chem., 278, 19500-19508) was 5′-^32P-end labeled and incubated at 1 nM concentration with various amounts of XPA in EMSA buffer (25 mM Hepes·KOH pH 8.0, 30 mM KCl, 10% glycerol, 1 mM DTT, 1 mM EDTA, 0.1 mg/ml BSA) at a reaction volume of 15 μl. After equilibration at room temperature for 30 min, the samples were loaded on a 5% (37.5:1) native polyacrylamide gel containing 0.5×TBE and electrophoresed at 90 V for 2 hrs. Gels were dried and the radioactive bands visualized by autoradiography.

Data set [2] deals with T1, central domain of ERCC1 (ERCC196-214) (Homo sapiens, UniProt P07992).
T1 construct: His6 (N); made in house; host or cells: E. coli BL21(DE3)
T1 sequence (P07992 96-214): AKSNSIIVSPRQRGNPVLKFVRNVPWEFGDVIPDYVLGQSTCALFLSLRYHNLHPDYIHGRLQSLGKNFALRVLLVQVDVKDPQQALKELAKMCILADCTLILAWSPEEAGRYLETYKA
The note with it: Tsodikov et al., 2005; direct titration; read-out: equilibrium binding constant for DNA binding to the central domain of ERCC1; cited from earlier work.

Data set [3] addresses T2, ERCC1 central domain (ERCC1 96-214 / 92-214) (Homo sapiens, UniProt P07992 SEQ:96-214).
T2 sequence: T1 sequence (P07992 96-214)
As to the kind of experiment: FP; 2.33 uM ERCC1, 50 nM DNA; XPA67-80 peptide competes (EC50 micromolar); 20 mM Tris pH 8.0, 20 mM NaCl, 2 mM bME. The note with it: tags: N-terminal His6; label: 5' 6-FAM.

In data set [4] the target is T3, XPA67-80 peptide (KIIDTGGGFILEEE) (Homo sapiens, UniProt P23025 SEQ:67-80).
T3 chain: KIIDTGGGFILEEE
In words: FP; peptide does not detectably bind DNA (data not shown); nonspecific anisotropy increase and quenching above 30 uM. The following applies: protein: synthetic; tags: synthetic peptide, solid phase, HPLC-purified; label: 5' 6-FAM.

{FAM} = 6-carboxyfluorescein (6-FAM) label

With “XPA-WT: purified full length wild-type XPA protein expressed in E. coli”, the “NER activity restored by XPA protein” value in data set [1] is listed as “robust NER activity”. The “binding to DNA three-way junction” value with DNA three-way junction is “bound with similar affinity”.
As for “DNA: 5' 6-FAM-labeled single-stranded 40mer DNA, 5'-CCGGTGGCCAGCGCTCGGCG(T)20 (DNA CCGGTGGCCAGCGCTCGGCGTTTTTTTTTTTTTTTTTTTT; DNA, 5' {FAM}, backbone not given here)”, the Kd in data set [2] is 1500 nM.

B1: 6FAM-labeled 40mer ssDNA (ssDNA)
DNA: CCGGTGGCCAGCGCTCGGCGTTTTTTTTTTTTTTTTTTTT
In the case of B1, the binding result is listed as “binds” in data set [3] and “no binding” in data set [4].

The values are drawn from patent publication US20100331233A1, “CRYSTAL OF XPA AND ERCC1 COMPLEX AND USES THEREOF” (priority 2007, published 2010).
